Results from patent US5561112A, “Pseudopeptide isosteres of gly-asp and their use as antithrombic agents” (Sandoz Ltd., priority 1992, dated 1996).
pIC50: −log10 of the molar value. Read-outs that look alike come from different tables or passages of the source.

Legend:
[1] = system: human blood platelets; assay: Inhibition of the ADP-induced aggregation of human blood platelets in the presence of fibrinogen (PA); type: cell-based; conditions: washed human platelets, stimulated with ADP in the presence of fibrinogen, aggregometer
Description: b) Inhibition of the ADP-induced aggregation of human blood platelets in the presence of fibrinogen: Blood platelets are isolated from fresh whole-blood by centrifugation, and washed. The washed platelets are resuspended in the presence of PGI2 and apyrase and stimulated with ADP ([…]) in the presence of fibrinogen. The ability of the platelets to aggregate in the presence or absence of inhibitors is quantified using an aggregometer.
The inhibition of the ADP-induced platelet aggregation is brought about by compounds of formula I in a range of IC50 (concentration of compounds of formula I at which 50% of platelet aggregation is inhibited) of between 20 and 100 nM.
(§1) The compounds of Examples 1 to 8 are tested to determine their IC50 values in the inhibition of the fibrinogen GPIIb/IIIa binding (FB) and inhibition of the ADP-induced platelet aggregation (PA) test procedures described above.

[2] = target: T1, GP IIb/IIIa (Homo sapiens, UniProt P05106+P08514); assay: Inhibition of binding of fibrinogen to isolated and immobilized GP IIb/IIIa (FB); conditions: biotin-labelled fibrinogen; GP IIb/IIIa isolated from human blood platelet membranes, bonded to microtitre plates; read-out: FB: IC50 (inhibition of the fibrinogen GPIIb/IIIa binding)
T1 construct: GP IIb/IIIa is isolated from membranes of human blood platelets by triton X-100 extraction; from tissue; host or cells: human blood platelets (membranes)
T1 sequence (P08514 32-887 limits assumed): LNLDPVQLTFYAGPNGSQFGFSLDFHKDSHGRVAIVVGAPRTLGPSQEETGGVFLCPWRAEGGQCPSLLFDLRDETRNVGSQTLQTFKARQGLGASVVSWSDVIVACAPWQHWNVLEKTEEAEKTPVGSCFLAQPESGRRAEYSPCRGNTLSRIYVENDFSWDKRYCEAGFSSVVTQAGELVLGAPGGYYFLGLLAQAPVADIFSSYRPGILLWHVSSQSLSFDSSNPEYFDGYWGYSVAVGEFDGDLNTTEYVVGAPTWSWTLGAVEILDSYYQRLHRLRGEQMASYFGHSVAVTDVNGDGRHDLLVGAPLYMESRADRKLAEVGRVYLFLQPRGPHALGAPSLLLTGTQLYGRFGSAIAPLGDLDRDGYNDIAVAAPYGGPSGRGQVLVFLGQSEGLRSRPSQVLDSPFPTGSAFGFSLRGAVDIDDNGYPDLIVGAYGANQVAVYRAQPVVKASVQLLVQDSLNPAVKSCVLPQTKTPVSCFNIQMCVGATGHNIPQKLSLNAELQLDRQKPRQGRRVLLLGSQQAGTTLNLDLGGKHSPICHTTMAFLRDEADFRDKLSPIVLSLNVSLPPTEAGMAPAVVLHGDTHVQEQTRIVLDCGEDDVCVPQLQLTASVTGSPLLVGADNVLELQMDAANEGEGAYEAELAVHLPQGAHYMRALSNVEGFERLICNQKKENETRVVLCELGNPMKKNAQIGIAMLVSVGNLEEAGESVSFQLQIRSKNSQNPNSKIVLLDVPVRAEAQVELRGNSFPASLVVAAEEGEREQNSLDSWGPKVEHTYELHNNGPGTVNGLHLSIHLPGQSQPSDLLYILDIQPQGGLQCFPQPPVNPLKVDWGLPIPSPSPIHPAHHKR
T1 sequence (P05106 27-788): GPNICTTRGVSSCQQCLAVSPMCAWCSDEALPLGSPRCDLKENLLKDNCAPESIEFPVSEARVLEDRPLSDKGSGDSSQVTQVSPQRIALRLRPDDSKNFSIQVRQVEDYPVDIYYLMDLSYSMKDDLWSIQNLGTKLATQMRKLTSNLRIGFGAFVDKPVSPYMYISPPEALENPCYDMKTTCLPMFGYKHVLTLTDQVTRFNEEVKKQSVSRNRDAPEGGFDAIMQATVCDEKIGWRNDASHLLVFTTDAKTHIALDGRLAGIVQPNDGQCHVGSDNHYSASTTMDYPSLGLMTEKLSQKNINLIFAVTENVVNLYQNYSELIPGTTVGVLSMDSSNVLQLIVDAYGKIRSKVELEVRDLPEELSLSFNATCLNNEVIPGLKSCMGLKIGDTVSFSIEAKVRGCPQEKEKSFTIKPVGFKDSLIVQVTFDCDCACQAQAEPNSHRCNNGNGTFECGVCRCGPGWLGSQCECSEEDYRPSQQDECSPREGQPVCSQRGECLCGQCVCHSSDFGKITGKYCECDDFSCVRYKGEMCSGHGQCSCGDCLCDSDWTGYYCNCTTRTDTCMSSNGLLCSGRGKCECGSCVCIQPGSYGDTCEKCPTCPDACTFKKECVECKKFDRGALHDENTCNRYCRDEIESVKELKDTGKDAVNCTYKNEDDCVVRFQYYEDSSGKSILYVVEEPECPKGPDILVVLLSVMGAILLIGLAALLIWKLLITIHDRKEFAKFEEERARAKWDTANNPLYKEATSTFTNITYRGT
Source text: a) Inhibition of binding of fibrinogen to isolated and immobilized GP IIb/IIIa: GP IIb/IIIa is isolated from membranes of human blood platelets by triton X-100 extraction and purified by chromatography on ion exchangers and by gel filtration. The receptor protein thus obtained is bonded to microtitre plates. The inhibition of the binding of biotin-labelled fibrinogen to the receptor in the presence of inhibitor is quantified.
The compounds of formula I effect an inhibition of the fibrinogen GP IIb/IIIa binding in a range of IC50 (concentration of compounds of formula I which reduce the binding of fibrinogen to the receptor by 50%) of between 0.5 and 20 nM.
as §1

[3] = read-out: PA: IC50 (inhibition of the ADP-induced platelet aggregation)

Row | SMILES | pIC50 ([1]; Platelet) | pIC50 [2] | pIC50 [1, 3]
1 | Cc1ccc(S(=O)(=O)N[C@@H](CCCNC(=O)Cc2ccc(C(=N)N)cc2)CC(=O)O)cc1 [Example 1, (S)-3-(N-tosylamino)-6-[N-(p-amidinophenylacetyl)amino]hexanoic acid] | 6.19 | 8.12 | 
2 | CC(C)CC(=O)N[C@@H](CCCNC(=O)Cc1ccc(C(=N)N)cc1)CC(=O)O [Example 2, (S)-3-[N-(3-methylbutyryl)amino]-6-[N-(p-amidinophenylacetyl)amino]hexanoicacid] | 7.00 | 8.77 | 
3 | COc1ccc(CCC(=O)N[C@@H](CCCNC(=O)Cc2ccc(C(=N)N)cc2)CC(=O)O)cc1 [Example 3, (S)-3-N-[3-(p-methoxyphenyl)propionyl]amino-6-[N-(p-amidinophenylacetyl)amino]hexanoic acid] |  | 8.96 | 7.51
4 | N=C(N)c1ccc(CC(=O)NCCC[C@@H](CC(=O)O)NC(=O)CC23CC4CC(CC(C4)C2)C3)cc1 [Example 4, (S)-3-[N-(adamant-1-ylacetyl)amino]-6-[N-(p-amidinophenylacetyl)amino]hexanoic acid] | 7.17 | 8.66 | 
5 | N=C(N)c1ccc(CC(=O)NCCC[C@@H](CC(=O)O)NC(=O)CCC23CC4CC(CC(C4)C2)C3)cc1 [Example 5, (S)-3-[N-(3-adamant-1-ylpropionyl)amino]-6-[N-(p-amidinophenylacetyl)amino]hexanoic acid] | 7.21 | 9.40 | 
6 | CC(C)CC(=O)N[C@@H](CCCCNC(=O)c1ccc(C(=N)N)cc1)CC(=O)O [Example 6, (S)-3-(N-(3-methylbutyryl)amino]-7-[N-(p-amidinobenzoyl)amino]heptanoic acid] | 7.82 | 9.30 | 
7 | COc1ccc(CCC(=O)N[C@@H]2CC(=O)O[C@H](CNC(=O)Cc3ccc(C(=N)N)cc3)C2)cc1 [Example 7, (3S,5S)-6-(4-amidinophenylacetylamino)-5-hydroxy-3-(4-methoxyphenylpropionylamino)-hexanoic acid-δ-lactone] |  | 9.30 | 7.10
8 | CC(C)CC(=O)N[C@@H]1CC(=O)O[C@H](CNC(=O)Cc2ccc(C(=N)N)cc2)C1 [Example 8, (3S,5S)-6-(4-amidino-phenylacetylamino)-5-hydroxy-3-(3-methyl-butyrylamino)-hexanoic acid-δ-lactone] |  | 9.05 | 6.96
